From article PMC12203428, “Discovery of Clonixeril as a Sub-Femtomolar Modulator of the Human STING Receptor” (ACS Central Science, 2025)
Where two headings read alike, the source gives them in different places.

Tests used:
[1] = test system: hSTING oligomerization in HEK293S cells; assay: Clear native PAGE of hSTING oligomerization in HEK293S cells; type: cell-based, human; conditions: CXL 1 h, then 100 nM diABZI3 2 h
Protocol: To determine whether the results we observed in the DLS experiments could be recapitulated in cellulo, where full-length hSTING is present, we used HEK293T cells transfected with WT hSTING (referred to herein as HEK293S cells) to perform hSTING clear native PAGE experiments. […] Thus, HEK293S cells were harvested following treatment with 100 nM diABZI3 for 2 h, following a 1 h treatment of varying concentrations of CXL.
Invitrogen NativePAGE Sample Prep Kit Catalog number: BN2008, Invitrogen NativePAGE Running Buffer Kit Catalog number: BN2007 and Invitrogen NativePAGE 4 to 16%, Bis-Tris, 1.0 mm, Mini Protein Gels, 10 wells, (Cat. # BN1002BOX). Cells were harvested and CXL was added at varying concentrations for 1 h and followed by 2 h of diABZI3 at 100 nM. To the mammalian cells harvested in 1 mL cell culture, add 0.2 mL lysis buffer containing 10 mM HEPES, pH 7.5,150 mM NaCl, 5% glycerol, protease inhibitor cocktail, and 0.025% digitonin. Cells were lysed by sonicating for two rounds of 15 s each while cooling the sample on ice. Centrifuge the lysate at 20,000g for 10 min at 4 °C. Aliquot the supernatant into microcentrifuge tubes. To prepare the sample for loading a total volume of 20 μL NativePAGE including Sample Buffer (4×) 5 μLSTING supernatant, 14.5 μL and Ponceau S-dye: 0.5 μL. 1X NativePAGE Anode Buffer: Add 30 mL of 20X NativePAGE Running Buffer to 570 mL of deionized water. […]

inflammation in rats = test system: inflammation in rats; parameters: method as in not given; conditions: 30–300 mg/kg, ref not given, cited from earlier work
[2] = test system: THP1 STING knockout cells; assay: STING knockout THP-1 luciferase assay; type: cell-based, human; conditions: WT-THP1 vs THP1 STING knockout cells
Description: docking algorithm to properly calculate estimated free energies of binding for the LD-protein […]
Differential Scanning Fluorimetry – Thermal Shift Experiment […]
to the endogenous ligand, 2’,3’-cGAMP, 2) unbound and 3) bound to ligands chosen by the virtual screening process for their potential to stabilize the active form of the STING molecule by binding to it. A TSA measures a protein's melting temperature (Tm), at which the protein is 50% denatured. The assay quantifies protein denaturation by measuring the increase in fluorescence of a dye that binds to hydrophobic residues exposed by unfolding of the protein.
To determine clonixeril’s hydrolytic stability and evaluate its potential as an oral drug, an aqueous solution was concentrated for analysis at 20 µM. The sample was analyzed by HPLC using an […]
The UV spectra of these peaks were compared by diode array and found to be identical with maximum absorbance at 280nm and 343nm. […]
the minor first peak matched the molecular weight of clonixin (M+H)+ and the second major peak matched the molecular weight of clonixeril (M+H)+. […] Hydrolysis of clonixeril to clonixin was measured by HPLC over seven days using a 20 µM aqueous solution. […]
Figure S4. […] (D) Quantification of luciferase assay performed using WT-THP1 and THP1 STING knockout cells in the presence and absence of clonixeril and/or 2’,3’-cGAMP. […]

[3] = test system: hSTING WT pathway (THP1 Dual KI-hSTING-R232 cells, IRF3 luciferase reporter); assay: THP-1 IRF3 luciferase reporter assay, clonixeril as agonist
Protocol: 2 Luciferase assay utilizing monocytic leukemia (THP-1) cells. Cells (Invivogen THP1 Dual KI-hSTING-R232; wild type) were analyzed for activation of the hSTING WT pathway via an IRF3 luciferase reporter. Luminescence is reported in relative luminescence units (RLU). Error bars are SEM A. Dose–response of THP-1 cells treated with various concentrations of clonixeril (CXL); N = 6.
A 10 mM stock solution of CXL in 100% DMSO was diluted with ultrapure Milli Q water to make 3, 5, 10, 15, 20, 30, 40, 50 μM samples. The vehicle control contained blank cell medium treated with 0.1% DMSO. 20 μL sample/well of CXL or dilute DMSO (vehicle control) was added to a white, 300 μL, sterile 96 well plate. […] All samples contained a final DMSO concentration of 0.1%. […] The expression of Lucia luciferase was quantified by measuring the luminescence and evaluated in triplicate. Data are average luminescence changes shown as relative luminescence after subtraction of the background luminescence of vehicle-treated cells. A Glowmax luminometer with an injector was used for the measurement of luminescence in the luciferase assay. After the 10h incubation period, 20 μL/well of cell culture supernatant was transferred to a fresh well plate. A single injector added 50 μL of detection reagent per well, and immediately measured luminescence using a 4s incubation time integrated over 1 s.

EC50 ([3]; Homo sapiens, THP1-Dual KI-hSTING-R232, read-out: EC50 (agonist activity), CXL alone, THP-1 cells, Figure 2A): ~19 µM
EC50 ([3]; read-out: EC50 (agonist activity), CXL alone, THP-1 cells, Figure 2A): 20 µM
Compound: Cc1c(Cl)cccc1Nc1ncccc1C(=O)OCC(O)CO (stereo not shown) [CXL, clonixeril]
Effect on hSTING oligomerization [1]: reduces hSTING oligomerization at concentrations down to attomolar levels
Ulcerogenic effects (inflammation in rats): without producing significant ulcerogenic effects
Anti-inflammatory effect (inflammation in rats; oral): anti-inflammatory effects
Pathway dependence of effect on pIRF3 production [2]: affecting pIRF3 production only through the STING pathway
Agonist activity in luciferase reporter assay ([3]; compound alone): weak agonist activity
